Usually EC50 stands for the concentration that produces a half-maximal response.

The species entered for test [1] is Macaca mulatta. Briefly: Selectivity ratio of EC50 for rhesus monkey GCGR to EC50 for rhesus monkey GLP1R.
Test [2] concerns the target Glucagon receptor (Homo sapiens, UniProt P47871). Kind of test: Agonist activity at human GCGR expressed in frozen cells assessed as increase in cAMP production measured after 1 hr by HitHunter luminescence assay. In kind it is functional, cell-based. In general terms: Cyclic AMP is a second messenger, typically raised through Gs and lowered through Gi signalling.
The target in test [3] is Glucagon-like peptide 1 receptor (Homo sapiens, UniProt P43220). Kind of test: Agonist activity at human GLP1R expressed in frozen cells assessed as increase in cAMP production measured after 1 hr by HitHunter luminescence assay. It counts as functional, cell-based.
Sequence of Glucagon-like peptide 1 receptor (P43220 whole entry): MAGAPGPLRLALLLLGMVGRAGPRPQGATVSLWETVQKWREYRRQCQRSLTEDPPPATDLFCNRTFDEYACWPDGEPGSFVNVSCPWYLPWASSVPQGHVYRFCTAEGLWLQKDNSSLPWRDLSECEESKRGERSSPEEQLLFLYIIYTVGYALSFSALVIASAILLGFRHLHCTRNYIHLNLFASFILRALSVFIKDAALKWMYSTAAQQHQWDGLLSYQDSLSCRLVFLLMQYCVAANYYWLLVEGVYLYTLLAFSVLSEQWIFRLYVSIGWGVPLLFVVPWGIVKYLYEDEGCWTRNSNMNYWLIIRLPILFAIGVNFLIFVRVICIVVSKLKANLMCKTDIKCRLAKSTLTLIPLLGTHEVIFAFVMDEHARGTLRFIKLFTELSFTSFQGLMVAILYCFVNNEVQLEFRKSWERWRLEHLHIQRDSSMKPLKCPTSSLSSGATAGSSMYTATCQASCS
The species named for test [4] is Homo sapiens. Briefly: Selectivity ratio of EC50 for human GCGR expressed in frozen cells to EC50 for human GLP1R expressed in frozen cells. It counts as cell-based.
Test [5] in a line: Agonist activity at rhesus monkey GCGR. Also on record: species or system Macaca mulatta.
Test [6] in a line: Agonist activity at rhesus monkey GLP1R. Also on record: species or system Macaca mulatta.

Sequence of Glucagon receptor (P47871 whole entry): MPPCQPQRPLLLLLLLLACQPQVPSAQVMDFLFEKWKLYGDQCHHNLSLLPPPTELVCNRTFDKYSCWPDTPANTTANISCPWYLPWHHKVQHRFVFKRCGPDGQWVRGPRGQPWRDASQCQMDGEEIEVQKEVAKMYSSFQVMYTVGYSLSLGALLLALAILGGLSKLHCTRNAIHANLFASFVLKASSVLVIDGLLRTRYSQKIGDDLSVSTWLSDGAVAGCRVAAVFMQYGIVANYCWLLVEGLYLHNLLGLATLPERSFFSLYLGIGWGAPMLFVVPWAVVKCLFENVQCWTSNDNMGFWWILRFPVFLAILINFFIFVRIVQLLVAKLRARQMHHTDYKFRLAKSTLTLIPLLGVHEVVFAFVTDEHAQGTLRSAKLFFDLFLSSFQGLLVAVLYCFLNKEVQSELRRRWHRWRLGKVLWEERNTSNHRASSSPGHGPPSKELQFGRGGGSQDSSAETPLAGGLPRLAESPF

In the case of `CCCCCCCCCCCCCCCC(=O)N[C@@H](CCC(=O)N[C@@H](CCC(=O)NCCCC[C@H](NC(=O)[C@H](CC(=O)O)NC(=O)[C@H](CO)NC(=O)[C@@H](NC(=O)[C@H](Cc1ccccc1)NC(=O)[C@@H](NC(=O)CNC(=O)[C@H](CCC(N)=O)NC(=O)[C@@H](CO)NC(=O)[C@@H](N)Cc1cnc[nH]1)[C@@H](C)O)[C@@H](C)O)C(=O)N[C@@H](CO)C(=O)N[C@@H](CCCCN)C(=O)N[C@@H](Cc1ccc(O)cc1)C(=O)N[C@@H](CC(C)C)C(=O)N[C@@H](CC(=O)O)C(=O)N[C@@H](CO)C(=O)N[C@@H](CCCNC(=N)N)C(=O)N[C@@H](C)C(=O)N[C@@H](C)C(=O)N[C@@H](CCC(N)=O)C(=O)N[C@@H](CC(=O)O)C(=O)N[C@@H](Cc1ccccc1)C(=O)N[C@H](C(=O)N[C@@H](CCC(N)=O)C(=O)N[C@@H](Cc1c[nH]c2ccccc12)C(=O)N[C@@H](CC(C)C)C(=O)N[C@@H](CC(C)C)C(=O)N[C@@H](CC(=O)O)C(=O)N[C@H](C(N)=O)[C@@H](C)O)C(C)C)C(=O)O)C(=O)O`, the Ratio EC50 was determined as 1 in test [1] and 0.6 in test [4]. Moreover, the EC50 was found to be 0.038 nM in test [2], 0.063 nM in test [3], 0.021 nM in test [5] and 0.02 nM in test [6].
Turning to `CCCCCCCCCCCCCCCC(=O)N[C@@H](CCC(=O)N[C@@H](CCC(=O)NCCCC[C@H](NC(=O)[C@H](CC(=O)O)NC(=O)[C@H](CO)NC(=O)[C@@H](NC(=O)[C@H](Cc1ccccc1)NC(=O)[C@@H](NC(=O)CNC(=O)[C@H](CCC(N)=O)NC(=O)C(C)(C)NC(=O)[C@@H](N)Cc1cnc[nH]1)[C@@H](C)O)[C@@H](C)O)C(=O)N[C@@H](CO)C(=O)N[C@@H](CCCCN)C(=O)N[C@@H](Cc1ccc(O)cc1)C(=O)N[C@@H](CC(C)C)C(=O)N[C@@H](CC(=O)O)C(=O)NC(C)(C)C(=O)N[C@@H](CCCNC(=N)N)C(=O)N[C@@H](C)C(=O)N[C@@H](C)C(=O)N[C@@H](CCC(N)=O)C(=O)N[C@@H](CC(=O)O)C(=O)N[C@@H](Cc1ccccc1)C(=O)N[C@H](C(=O)N[C@@H](CCC(N)=O)C(=O)N[C@@H](Cc1c[nH]c2ccccc12)C(=O)N[C@@H](CC(C)C)C(=O)N[C@@H](CCSC)C(=O)N[C@@H](CC(=O)O)C(=O)N[C@H](C(=O)N[C@@H](CCCCNC(=O)CC[C@H](N)C(=O)O)C(N)=O)[C@@H](C)O)C(C)C)C(=O)O)C(=O)O`, the Ratio EC50 in test [1] worked out at 9.1; in test [4] it was 2.1. In addition, the EC50 stood at 0.048 nM in test [2], 0.022 nM in test [3], 0.064 nM in test [5] and 0.007 nM in test [6].

These data come from ChEMBL document CHEMBL5126614 (ACS Med Chem Lett, 2022).
